Source: ChEMBL document CHEMBL4483862, “Open-source discovery of chemical leads for next-generation chemoprotective antimalarials” (2018)

Test system: Plasmodium berghei
Experiment: Luciferase/luciferin-expressing antifolate-resistant parasites were used to infect a culture of HepG2 cells that were pre-incubated with compounds. Infected hepatocytes emit light due to the luciferase reaction. Assay results are presented as the percent inhibition of light emission compared to control. […]
Type: functional
Details: sporozoite; for IC90: read-out: LUCIFERASE INFECTION ASSAY - IC90
[1] = read-out: LUCIFERASE INFECTION ASSAY - IC50

O=C(c1cn2ccccc2n1)N1CCN(C(c2ccccc2)c2ccccc2)CC1
IC50 (PBLUC_HILL_SLOPE 4.26, PBLUC_R_SQUARED 0.0991, read-out: LUCIFERASE INFECTION ASSAY - IC50): 6.51 µM
IC90: > 10 µM

CCn1c2ccccc2c2cc([N+](=O)[O-])ccc21
IC50 (HEPG2TOX_HILL_SLOPE 12, HEPG2TOX_R_SQUARED 0.261, PBLUC_HILL_SLOPE 16.8, PBLUC_R_SQUARED 0.0444, read-out: LUCIFERASE INFECTION ASSAY - IC50): 13.7 µM
IC90: > 13.7 µM

NNC(=S)c1cc(Cl)cc(Cl)c1
IC50 (PBLUC_HILL_SLOPE 7.79, PBLUC_R_SQUARED 0.6, read-out: LUCIFERASE INFECTION ASSAY - IC50): 5.82 µM
IC90: 7.72 µM

O=c1nc(Nc2cccc(C(F)(F)F)c2)[nH]nc1Cc1ccccc1
IC50 [1]: 1.23 µM
IC90: > 9.53 µM

O=C1NC(=S)S/C1=C\c1ccc(OCc2ccc(Cl)c(Cl)c2)cc1
IC50 (HEPG2TOX_HILL_SLOPE 0.0732, HEPG2TOX_R_SQUARED 0.0803, read-out: LUCIFERASE INFECTION ASSAY - IC50): > 8.33 µM
IC90: > 8.33 µM

Cc1ccc(C(=O)COC(=O)Cc2n[nH]c(=O)c3ccccc23)s1
IC50 (HEPG2TOX_HILL_SLOPE 1.97, HEPG2TOX_R_SQUARED 0.94, PBLUC_HILL_SLOPE 2.28, PBLUC_R_SQUARED 0.564, read-out: LUCIFERASE INFECTION ASSAY - IC50): 3.44 µM
IC90: 9 µM

CC(C)N1CCCc2cc(CN3CCC4(CC3)C(=O)N(CCCc3ccncc3)C(=O)N4C)ccc21
IC50 (HEPG2TOX_HILL_SLOPE 0.974, HEPG2TOX_R_SQUARED 0.954, PBLUC_HILL_SLOPE 1.42, PBLUC_R_SQUARED 0.506, read-out: LUCIFERASE INFECTION ASSAY - IC50): 3.48 µM
IC90: > 6.74 µM

Clc1ccccc1Oc1ccc(Nc2ccc3nnnn3n2)cc1
IC50 [1]: > 10 µM
IC90: > 10 µM

O=C(Nc1ccc(N2CCCC2)cn1)c1cc(Cl)ccn1
IC50 (PBLUC_HILL_SLOPE 0.363, 0.720, PBLUC_R_SQUARED 0.388, 0.822, read-out: LUCIFERASE INFECTION ASSAY - IC50): 0.119 µM
IC90: 2.06 µM

C=CCN(c1cccc(C(F)(F)F)c1)S(=O)(=O)c1cc(C(=O)Nc2ccc3c(c2)CCC3)ccc1Cl
IC50 [1]: > 10 µM
IC90: > 10 µM

CC(C)c1ccccc1NC(=O)Nc1nc(C(N)Cc2ccc(C(F)(F)F)cc2)cs1 (stereo unspecified)
IC50 (PBLUC_HILL_SLOPE 1.06, PBLUC_R_SQUARED 0.663, read-out: LUCIFERASE INFECTION ASSAY - IC50): 1.89 µM
IC90: > 7.36 µM

Cc1cc(C)cc(-n2nc(C)c3c2NC(=O)CC3c2ccc3c(c2)OCO3)c1 (stereo unspecified)
IC50 (PBLUC_HILL_SLOPE 3.57, PBLUC_R_SQUARED 0.259, read-out: LUCIFERASE INFECTION ASSAY - IC50): 7.56 µM
IC90: > 8.79 µM

COc1ccccc1CNc1ncnc2scc(-c3ccccc3)c12
IC50 (PBLUC_HILL_SLOPE 3.56, PBLUC_R_SQUARED 0.13, read-out: LUCIFERASE INFECTION ASSAY - IC50): 5.66 µM
IC90: > 10 µM

CCOc1cc2c(cc1CN(Cc1nc(=O)c3cc(-c4ccccc4)sc3[nH]1)Cc1nc(=O)c3cc(-c4ccccc4)sc3[nH]1)OC(C)C2 (stereo unspecified)
IC50 [1]: > 10 µM
IC90: > 10 µM

CN1CCN(c2ccc(CNc3ccc4ncc(-c5ccc(OC(F)(F)F)cc5)n4n3)cc2)CC1
IC50 (HEPG2TOX_HILL_SLOPE 14.3, HEPG2TOX_R_SQUARED 0.469, PBLUC_HILL_SLOPE 4.14, PBLUC_R_SQUARED 0.775, read-out: LUCIFERASE INFECTION ASSAY - IC50): 3.6 µM
IC90: 6.12 µM

O=[N+]([O-])c1ccc2nc3c(c(-c4ccccc4)c2c1)CSc1ccccc1-3
IC50 [1]: > 10 µM
IC90: > 10 µM

Cc1noc(-c2ccc(Cl)cc2)c1C(=O)ON=C(N)c1ccc(C(C)(C)C)cc1
IC50 (FFLUC_HILL_SLOPE 0.0669, FFLUC_R_SQUARED 0.264, read-out: LUCIFERASE INFECTION ASSAY - IC50): > 8.01 µM
IC90: > 8.01 µM

O=C(Nc1cc(Cl)cc(Cl)c1)c1cc(Br)ccc1O
IC50 (HEPG2TOX_HILL_SLOPE 1.83, HEPG2TOX_R_SQUARED 0.974, PBLUC_HILL_SLOPE 1.75, PBLUC_R_SQUARED 0.827, read-out: LUCIFERASE INFECTION ASSAY - IC50): 0.385 µM
IC90: 1.35 µM

FC(F)(F)Oc1cccc(-c2nnc3ccc(-c4cccc5ncccc45)cn23)c1
IC50 (HEPG2TOX_HILL_SLOPE 0.706, HEPG2TOX_R_SQUARED 0.938, PBLUC_HILL_SLOPE 2.17, PBLUC_R_SQUARED 0.421, read-out: LUCIFERASE INFECTION ASSAY - IC50): 0.928 µM
IC90: 2.55 µM

O=C(c1ccc(-c2ccc3c(c2)OCCO3)s1)N1CCc2ccccc21
IC50 [1]: > 10 µM
IC90: > 10 µM

CC1CC(C)CN(C2=CC(=[N+]3CCCC3)CC(C)(C)C2)C1 (stereo unspecified)
IC50 (HEPG2TOX_HILL_SLOPE 0.983, HEPG2TOX_R_SQUARED 0.985, PBLUC_HILL_SLOPE 2.02, PBLUC_R_SQUARED 0.664, read-out: LUCIFERASE INFECTION ASSAY - IC50): 0.682 µM
IC90: 2.02 µM

O=C(Nc1cccc(C(F)(F)F)c1)n1cc(-c2ccccn2)c(N2CCOCC2)n1
IC50 (PBLUC_HILL_SLOPE 5.81, PBLUC_R_SQUARED 0.476, read-out: LUCIFERASE INFECTION ASSAY - IC50): 5.62 µM
IC90: > 7.91 µM

CCC(C)NC(=O)c1c(NC(=O)c2ccccc2)nc2ccc(C)cn12 (stereo unspecified)
IC50 (PBLUC_HILL_SLOPE 13.5, PBLUC_R_SQUARED 0.225, read-out: LUCIFERASE INFECTION ASSAY - IC50): 8.13 µM
IC90: > 9.42 µM

O=C(Nc1cccc(Cn2ccnc2)c1)c1nn(-c2ccccc2)c2c1CCC2
IC50 [1]: > 10 µM
IC90: > 10 µM

O=C(Cc1csc(-c2ccccn2)n1)Nc1sc2c(c1C(=O)NCc1ccccc1)CCCC2
IC50 [1]: > 10 µM
IC90: > 10 µM

C=CCn1c(SCC(=O)Nc2scc(-c3ccc(C(C)(C)C)cc3)c2C(=O)OCC)nc2sc3c(c2c1=O)CCC3
IC50 [1]: > 10 µM
IC90: > 10 µM

CCOC(=O)c1c(NC(=O)C(C)N(C)CC(=O)Nc2cc(C)ccc2C)sc2c1CCC(C)C2 (stereo unspecified)
IC50 [1]: > 10 µM
IC90: > 10 µM

Cc1nc(C(N)=NOC(=O)c2c(-c3ccccc3Cl)noc2C)cs1
IC50 [1]: > 8.76 µM
IC90: > 8.76 µM

CC(C)n1ncc2cc(C(=O)Nc3nc4ccccc4s3)cnc21
IC50 [1]: 0.00908 µM
IC90: 1.97 µM

COc1ccc(OCCN2CCN(CC(=O)Nc3nc(-c4c[nH]c5ccccc45)cs3)CC2)cc1
IC50 (FFLUC_HILL_SLOPE 11.8, FFLUC_R_SQUARED 0.598, PBLUC_HILL_SLOPE 24.3, PBLUC_R_SQUARED 0.264, read-out: LUCIFERASE INFECTION ASSAY - IC50): 9.11 µM
IC90: 9.98 µM

c1ccc(-c2cc3nc(NCC4CC4)nc(NCC4CCCCC4)c3s2)cc1
IC50 (HEPG2TOX_HILL_SLOPE 9.69, HEPG2TOX_R_SQUARED 0.573, PBLUC_HILL_SLOPE 14.3, PBLUC_R_SQUARED 0.374, read-out: LUCIFERASE INFECTION ASSAY - IC50): 3.41 µM
IC90: 3.98 µM

CNc1nc2cnc(Nc3cccc(N(C)C)c3)cc2n1-c1ccccc1
IC50 [1]: > 10 µM
IC90: > 10 µM

CCOC(=O)c1c(C)nn(-c2ccc(NC(=O)c3cccs3)cc2)c1C
IC50 (PBLUC_HILL_SLOPE 1.61, PBLUC_R_SQUARED 0.613, read-out: LUCIFERASE INFECTION ASSAY - IC50): 1.43 µM
IC90: 5.59 µM

COC(=O)C1=C(Nc2ccc(OC(=O)Nc3cccc(Cl)c3)cc2)CSC1
IC50 (FFLUC_HILL_SLOPE 18, FFLUC_R_SQUARED 0.412, read-out: LUCIFERASE INFECTION ASSAY - IC50): > 8.15 µM
IC90: > 8.15 µM

COC(=O)c1c(-c2ccccc2Cl)noc1/C=C/c1c[nH]c(=O)c2c(-c3ccccc3Cl)noc12
IC50 (PBLUC_HILL_SLOPE 1.63, PBLUC_R_SQUARED 0.42, read-out: LUCIFERASE INFECTION ASSAY - IC50): 3.61 µM
IC90: > 6.49 µM

CC1CCN(CC(=O)Nc2cccc(C(=O)Nc3cccc(C(F)(F)F)c3)c2)CC1
IC50 [1]: > 10 µM
IC90: > 10 µM

CN(C)CCNC(=O)c1ccc(-c2cnc3c(Nc4cccc(C(F)(F)F)c4)nccn23)cc1
IC50 (PBLUC_HILL_SLOPE 63.8, PBLUC_R_SQUARED 0.339, read-out: LUCIFERASE INFECTION ASSAY - IC50): 6.95 µM
IC90: > 7.04 µM

COc1cccc(Nc2nccc3nc(-c4cccc(C)c4)[nH]c23)c1
IC50 (PBLUC_HILL_SLOPE 2.7, PBLUC_R_SQUARED 0.647, read-out: LUCIFERASE INFECTION ASSAY - IC50): 6.02 µM
IC90: > 10 µM

O=C(O)c1ccc(N=C2C=C(NS(=O)(=O)c3ccc(Cl)cc3)c3ccccc3C2=O)cc1
IC50 [1]: > 10 µM
IC90: > 10 µM

CC(NC(=O)CSc1nnc(-c2cccs2)[nH]1)c1ccc2c(c1)CCCC2 (stereo unspecified)
IC50 (HEPG2TOX_HILL_SLOPE 0.208, HEPG2TOX_R_SQUARED 0.204, PBLUC_HILL_SLOPE 1.17, PBLUC_R_SQUARED 0.355, read-out: LUCIFERASE INFECTION ASSAY - IC50): 7.84 µM
IC90: > 10 µM

COc1cccc(NC(=O)N2CCc3nc(Nc4ccc(C(C)C)cc4)ncc3C2)c1
IC50 (PBLUC_HILL_SLOPE 3.71, PBLUC_R_SQUARED 0.181, read-out: LUCIFERASE INFECTION ASSAY - IC50): 6.78 µM
IC90: > 7.9 µM

Cc1ccc(-c2nn(-c3ccccc3)c3[nH]c(-c4ccccc4)cc(=O)c23)cc1
IC50 (FFLUC_HILL_SLOPE 0.301, FFLUC_R_SQUARED 0.0383, PBLUC_HILL_SLOPE 15, PBLUC_R_SQUARED 0.1, read-out: LUCIFERASE INFECTION ASSAY - IC50): 9.8 µM
IC90: > 10 µM

CNc1cc(Nc2cc(C)c(Oc3cccc(C(C)(C)C)c3)cc2C)ncn1
IC50 (FFLUC_HILL_SLOPE 11.3, FFLUC_R_SQUARED 0.0353, HEPG2TOX_HILL_SLOPE 16.8, HEPG2TOX_R_SQUARED 0.912, PBLUC_HILL_SLOPE 9.72, PBLUC_R_SQUARED 0.605, read-out: LUCIFERASE INFECTION ASSAY - IC50): 6.77 µM
IC90: 8.49 µM
